According to patent US7662832B2, “Pyrrolo[2,3-c]pyridine derivatives and processes for the preparation thereof” (priority 2004, dated 2010):
Structures can show the parent of a compound that is named as a salt.

Target: Proton Pump (H^+/K^+-ATPase) (Sus scrofa, UniProt P19156)
Assay: Inhibitory effects on proton pump (H^+/K^+-ATPase) activity
Type: biochemical
Details: hog gastric vesicles; K^+ stimulated H^+/K^+-ATPase activity; 30 minutes at 37° C.

Proton Pump (H^+/K^+-ATPase), sequence (P19156 2-1034 limits assumed): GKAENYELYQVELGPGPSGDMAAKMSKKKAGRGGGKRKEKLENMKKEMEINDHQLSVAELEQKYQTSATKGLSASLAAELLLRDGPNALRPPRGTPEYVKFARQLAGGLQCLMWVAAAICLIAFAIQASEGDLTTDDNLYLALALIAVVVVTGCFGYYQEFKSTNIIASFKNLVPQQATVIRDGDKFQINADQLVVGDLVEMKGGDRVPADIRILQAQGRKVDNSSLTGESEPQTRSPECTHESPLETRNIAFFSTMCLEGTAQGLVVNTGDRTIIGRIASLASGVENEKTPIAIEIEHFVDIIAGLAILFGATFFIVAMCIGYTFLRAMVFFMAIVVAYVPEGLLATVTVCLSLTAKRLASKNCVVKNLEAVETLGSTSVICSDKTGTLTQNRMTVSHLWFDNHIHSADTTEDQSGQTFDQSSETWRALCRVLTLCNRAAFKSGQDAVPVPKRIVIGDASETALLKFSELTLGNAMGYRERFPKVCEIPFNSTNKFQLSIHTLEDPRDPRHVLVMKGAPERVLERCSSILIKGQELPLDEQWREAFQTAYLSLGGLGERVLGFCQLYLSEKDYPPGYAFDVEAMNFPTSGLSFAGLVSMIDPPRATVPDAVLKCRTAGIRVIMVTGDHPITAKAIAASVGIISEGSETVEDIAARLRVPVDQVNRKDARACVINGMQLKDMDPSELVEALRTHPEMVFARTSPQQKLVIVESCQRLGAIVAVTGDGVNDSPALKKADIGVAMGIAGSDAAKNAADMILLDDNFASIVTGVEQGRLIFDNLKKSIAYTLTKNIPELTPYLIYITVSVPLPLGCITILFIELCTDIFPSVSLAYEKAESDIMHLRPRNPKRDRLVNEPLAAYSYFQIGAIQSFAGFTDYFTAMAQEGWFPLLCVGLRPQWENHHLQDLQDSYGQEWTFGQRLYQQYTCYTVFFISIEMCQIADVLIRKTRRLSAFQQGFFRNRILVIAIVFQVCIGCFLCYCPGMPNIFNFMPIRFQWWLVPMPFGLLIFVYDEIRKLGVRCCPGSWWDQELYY
Proton Pump (H^+/K^+-ATPase), sequence (P18434 whole entry partner): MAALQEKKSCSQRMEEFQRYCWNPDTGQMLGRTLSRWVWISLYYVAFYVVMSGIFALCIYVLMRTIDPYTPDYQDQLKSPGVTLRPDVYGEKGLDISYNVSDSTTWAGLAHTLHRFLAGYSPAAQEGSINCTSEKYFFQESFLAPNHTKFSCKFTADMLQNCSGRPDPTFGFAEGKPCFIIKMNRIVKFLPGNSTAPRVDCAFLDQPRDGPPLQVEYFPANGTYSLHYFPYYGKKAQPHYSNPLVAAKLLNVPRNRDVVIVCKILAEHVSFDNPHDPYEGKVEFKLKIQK

SMILES	IC50 [nM]
C=CCn1c(C)c(C)c2ccnc(N3CCc4ccccc4C3)c21 [Example 485, 1-allyl-7-(1,2,3,4-tetrahydroisoquinolin-2-yl)-2,3-dimethyl-1H-pyrrolo[2,3-c]pyridine citrate]	6
COc1cccc(Cn2c(C)c(C)c3cc(C(=O)N4CCSCC4)nc(N4CCc5ccccc5C4)c32)c1 [Example 784, [7-(3,4-dihydro-1H-isoquinolin-2-yl)-1-(3-methoxybenzyl)-2,3-dimethyl-1H-pyrrolo[2,3-c]pyridin-5-yl]-(thiomorpholin-1-yl)-methanone hydrochloride]	202
C=CCn1c(C)c(C)c2ccnc(N3CCc4ccccc4C3)c21 [Example 487, 1-allyl-7-(1,2,3,4-tetrahydroisoquinolin-2-yl)-2,3-dimethyl-1H-pyrrolo[2,3-c]pyridine methanesulfonate]	4
CCC1c2ccccc2CCN1c1nccc2c(C)c(C)n(CC)c12 (centres unmarked) [Example 576, 1-ethyl-2-(1-ethyl-2,3-dimethyl-1H-pyrrolo[2,3-c]pyridin-7-yl)-1,2,3,4-tetrahydroisoquinoline hydrochloride]	220
COc1ccc(-c2nccc3c(C)c(C)n(Cc4ccccc4F)c23)cc1 [Example 353, 1-(2-fluorobenzyl)-7-(4-methoxyphenyl)-2,3-dimethyl-1H-pyrrolo[2,3-c]pyridine hydrochloride]	490
CC=CCn1c(C)c(C)c2ccnc(NCc3ccccc3)c21 [Example 183, 7-benzylamino-1-(but-2-enyl)-2,3-dimethyl-1H-pyrrolo[2,3-c]pyridine hydrochloride]	220
CCCn1c(C)c(C)c2ccnc(NCc3ccccc3C)c21 [Example 230, 2,3-dimethyl-7-(2-methylbenzylamino)-1-propyl-1H-pyrrolo[2,3-c]pyridine hydrochloride]	92
Cc1c(C)n(Cc2ccccc2)c2c(CNc3ccc(F)cc3)nccc12 [Example 89, N-(1-benzyl-2,3-dimethyl-1H-pyrrolo[2,3-c]pyridin-7-ylmethyl)-4-fluorophenylamine hydrochloride]	321
C=CCn1c(C)c(C)c2ccnc(N3CCc4ccccc4C3)c21 [Example 493, 1-allyl-7-(1,2,3,4-tetrahydroisoquinolin-2-yl)-2,3-dimethyl-1H-pyrrolo[2,3-c]pyridine benzenesulfonate]	4
COc1cccc(Cn2c(C)c(C)c3cc(C(=O)N4CCNCC4)nc(N4CCc5ccccc5C4)c32)c1 [Example 822, [7-(3,4-dihydro-1H-isoquinolin-2-yl)-1-(3-methoxybenzyl)-2,3-dimethyl-1H-pyrrolo[2,3-c]pyridin-5-yl]-(piperazin-1-yl)-methanone hydrochloride]	23
Cc1c(C)n(Cc2ccc(F)cc2)c2c(N3CCc4ccccc4C3)nccc12 [Example 471, 1-(4-fluorobenzyl)-7-(1,2,3,4-tetrahydroisoquinolin-2-yl)-2,3-dimethyl-1H-pyrrolo[2,3-c]pyridine hydrochloride]	230
C=Cc1ccc(-c2nccc3c(C)c(C)n(CC)c23)cc1 [Example 251, 1-ethyl-2,3-dimethyl-7-(4-vinylphenyl)-1H-pyrrolo[2,3-c]pyridine hydrochloride]	460

Next, values leading:

IC50 [nM]	SMILES
5080	Cc1ccc(-c2nccc3c(C)c(C)n(Cc4ccc(Cl)c(Cl)c4)c23)cc1 [Example 296, 1-(3,4-dichlorobenzyl)-2,3-dimethyl-7-(p-tolyl)-1H-pyrrolo[2,3-c]pyridine hydrochloride]
29	C=CCn1c(C)c(C)c2cc(C(=O)NCCO)nc(N3CCc4ccccc4C3)c21 [Example 837, 1-allyl-7-(3,4-dihydro-1H-isoquinolin-2-yl)-2,3-dimethyl-N-(2-hydroxyethyl)-1H-pyrrolo[2,3-c]pyridin-5-carboxamide hydrochloride]
212	COc1cccc(Cn2c(C)c(C)c3ccnc(COc4ccc(C)cc4C)c32)c1 [Example 68, 1-(3-methoxybenzyl)-2,3-dimethyl-7-(2,4-dimethylphenoxymethyl)-1H-pyrrolo[2,3-c]pyridine hydrochloride]
257	Cc1c(C)n(Cc2ccccc2)c2c(N3CCc4ccccc4C3)nc(C(=O)n3ccnc3)cc12 [Example 839, [1-benzyl-7-(3,4-dihydro-1H-isoquinolin-2-yl)-2,3-dimethyl-1H-pyrrolo[2,3-c]pyridin-5-yl]-(imidazol-1-yl)-methanone hydrochloride]
500	CCn1c(C)c(C)c2ccnc(N3CCc4ccccc4C3C3CC3)c21 (centres unmarked) [Example 569, 1-cyclopropyl-2-(1-ethyl-2,3-dimethyl-1H-pyrrolo[2,3-c]pyridin-7-yl)-1,2,3,4-tetrahydroisoquinoline hydrochloride]
140	Cc1ccc(OCc2nccc3c(C)c(C)n(Cc4ccccc4)c23)cc1 [Example 15, 1-benzyl-2,3-dimethyl-7-(p-tolyloxymethyl)-1H-pyrrolo[2,3-c]pyridine hydrochloride]
140	C=CCn1c(C)c(C)c2ccnc(N3CCc4ccccc4C3CC)c21 (centres unmarked) [Example 577, 2-(1-allyl-2,3-dimethyl-1H-pyrrolo[2,3-c]pyridin-7-yl)-1-ethyl-1,2,3,4-tetrahydroisoquinoline hydrochloride]
58	CCn1c(C)c(C)c2ccnc(N3CCc4cc(F)ccc4C3C)c21 (centres unmarked) [Example 562, 2-(1-ethyl-2,3-dimethyl-1H-pyrrolo[2,3-c]pyridin-7-yl)-6-fluoro-1-methyl-1,2,3,4-tetrahydroisoquinoline hydrochloride]
58	Cc1c(C)n(Cc2ccccc2)c2c(COc3ccc(F)cc3)nccc12 [Example 3, 1-benzyl-7-(4-fluorophenoxymethyl)-2,3-dimethyl-1H-pyrrolo[2,3-c]pyridine hydrochloride]
62	Cc1c(C)n(Cc2cccc(F)c2)c2c(N3CCc4ccccc4C3)nc(N)cc12 [Example 847, 7-(3,4-dihydro-1H-isoquinolin-2-yl)-1-(3-fluorobenzyl)-2,3-dimethyl-1H-pyrrolo[2,3-c]pyridin-5-amine hydrochloride]
125	C=CCn1c(C)c(C)c2cc(C(=O)NC3CC3)nc(N3CCc4ccccc4C3)c21 [Example 761, 1-allyl-7-(3,4-dihydro-1H-isoquinolin-2-yl)-2,3-dimethyl-N-cyclopropyl-1H-pyrrolo[2,3-c]pyridin-5-carboxamide]
39	Cc1c(C)n(Cc2ccc(F)cc2)c2c(N3CCc4ccccc4C3)nc(C(=O)N3CCN(C)CC3)cc12 [Example 831, [7-(3,4-dihydro-1H-isoquinolin-2-yl)-1-(4-fluorobenzyl)-2,3-dimethyl-1H-pyrrolo[2,3-c]pyridin-5-yl]-(4-methylpiperazin-1-yl)-methanone hydrochloride]
129	C=CCn1c(C)c(C)c2ccnc(-c3ccc(C)cc3)c21 [Example 277, 1-allyl-2,3-dimethyl-7-(p-tolyl)-1H-pyrrolo[2,3-c]pyridine hydrochloride]
30	C=CCn1c(C)c(C)c2cc(C(=O)NC)nc(N3CCc4ccccc4C3)c21 [Example 757, 1-allyl-7-(3,4-dihydro-1H-isoquinolin-2-yl)-2,3-dimethyl-N-methyl-1H-pyrrolo[2,3-c]pyridin-5-carboxamide hydrochloride]
